Experimental findings from PMC8896685 (PLoS ONE, 2022) are described below.

Numbered stars: 1 amine (or outer) side, 2 acyl side, 3 side chain; on linkers, the order of the positions; unused ones are H or OH. Square brackets hold non-standard residues; d marks the D form. Side chains are listed from the residue outwards. Peptide text beside a SMILES is read from it. * marks the point of attachment. C18 diacid = O=C(O)CCCCCCCCCCCCCCCCC(=O)*; γGlu = O=C(O)[C@H](CCC(=O)[*:2])N[*:1]; Desaminohistidyl = O=C(CCc1c[nH]cn1)*; AEEA = NCCOCCOCC(=O)O; Aib = CC(C)(N)C(=O)O

One experiment has as its target T1, Mouse GCGR (Mus musculus, UniProt Q61606).
T1 construct: a plasmid encoding either the glucagon receptor or the GLP-1 receptor from the relevant species; expressed in transfected cells
Nature of the experiment: Receptor potency, CRE-luciferase functional assay in BHK cells. The conditions noted are these: Mouse receptors, whole BHK cells, 3 h 37°C, value (95% CI). It is filed as cell-based. The procedure:
(§1) The binding assay was performed on cell membranes in the presence of 1% (v/v) species-specific heparin-treated pooled plasma (Bioreclamation IVT, Westbury, NY) diluted in assay buffer (50 mM HEPES supplemented with 5 mM EGTA, 5 mM MgCl2, and 0.005% (v/v) Tween 20, pH7.4). […] Cells stably expressing an individual receptor of interest were grown at 5% CO2, 37°C in DMEM (supplemented with 10% FCS, 0.5 mg/ml G418 and 0.3 mg/ml hygromycin). Membrane preparations were made from cells harvested at approximately 80% confluence, washed and homogenized in 20 mM HEPES with 0.1 mM EDTA, pH 7.4. Protein concentration was determined, and the membranes were stored at -80°C until use. The membrane binding assay was performed in a 96-well OptiPlate (PerkinElmer) in a total volume of 200 μl. Test compounds were dissolved in 80% DMSO and further diluted in assay buffer. 50 μl of diluted plasma was added to the assay plate wells followed by addition of test compounds (25 μl), cell membranes (50 μl, 0.06 mg/ml), SPA beads (20 mg/ml in assay buffer) and radioligand (60,000 cpm/well, corresponding to 0.06 nM; 2200 Ci/mmol. Each assay plate was incubated for 2 h at 30°C, centrifuged at 1500 rpm for 10 minutes and counted in a TopCount NXT instrument (PerkinElmer).
(§2) Functional assays were performed on whole cells in the absence or presence of 100% species-specific heparin-treated pooled plasma (Bioreclamation IVT). […] The cells were cultured with DMEM (supplemented with GlutaMAX, 10% FBS, 0.5 mg/ml G418 and 0.3 mg/ml hygromycin) at 5% CO2 and 37°C. At approximately 80–90% confluence, cells were washed with PBS and harvested with Versene (Life Technologies, Carlsbad, CA). The cells were counted and plated into 96-well microtiter plates coated with poly-D-Lys (Corning BioCoat) with 5,000 cells/well and thereafter incubated overnight in growth media. The next day the media was changed to assay buffer (DMEM without phenol red, supplemented with GlutaMAX, 10 mM HEPES, 1% ovalbumin and 0.1% Pluronic F-68) or to 100% plasma. In the absence of plasma, compounds were diluted in assay buffer. In assays tested with plasma, compounds were diluted in pure plasma. Buffer was removed from the plates and 50 μl of test compound dilutions was added to the plates followed by 50 μl of plasma or the same buffer used for compound dilution. The assay plates were incubated for 3 h in a 5% CO2 incubator at 37°C. The plates were then transferred to room temperature for 15 min and 100 μl Steadylite Plus reagent (PerkinElmer) was added to each well. The plates were shaken for 30 min at room temperature while protected from light after which luminescence was measured.
(§3) For the receptor binding assays, logIC50 values were calculated using non-linear regression analysis. The error estimation was reported as the 95% confidence interval. […] The calculations were performed in GraphPad Prism 6.4 (GraphPad, San Diego, CA) and error estimation was expressed as the 95% confidence interval. […] Averages, error estimation, ratios and plasma shifts were all calculated on logIC50 or logEC50 values and transformed to the anti-log values for reporting purposes.

Experiment [1] addresses T2, Mouse GLP-1R (Mus musculus, UniProt O35659).
T2 construct: a plasmid encoding either the glucagon receptor or the GLP-1 receptor from the relevant species; expressed in transfected cells
T2 sequence (O35659 22-463): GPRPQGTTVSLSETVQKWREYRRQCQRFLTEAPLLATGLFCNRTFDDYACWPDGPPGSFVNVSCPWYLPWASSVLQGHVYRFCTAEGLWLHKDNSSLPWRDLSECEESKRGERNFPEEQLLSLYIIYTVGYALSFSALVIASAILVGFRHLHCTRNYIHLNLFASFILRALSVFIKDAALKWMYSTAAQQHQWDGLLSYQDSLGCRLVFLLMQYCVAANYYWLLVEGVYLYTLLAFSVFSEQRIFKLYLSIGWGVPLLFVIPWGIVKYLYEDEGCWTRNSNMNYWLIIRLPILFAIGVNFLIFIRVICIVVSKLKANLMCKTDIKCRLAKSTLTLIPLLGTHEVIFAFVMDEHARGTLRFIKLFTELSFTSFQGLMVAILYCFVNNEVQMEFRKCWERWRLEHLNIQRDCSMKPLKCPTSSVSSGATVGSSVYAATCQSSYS
The experiment is described as above. It is filed as cell-based. The conditions noted are these: GLP-1R EC50, pM (95% CI) 100% plasma, Mouse receptors, whole BHK cells, 100% species-specific plasma, 3 h 37°C, value (95% CI). The procedure: as §1, §2, §3

Another experiment deals with T3, Rat GLP-1R (Rattus norvegicus, UniProt P32301).
T3 construct: a plasmid encoding either the glucagon receptor or the GLP-1 receptor from the relevant species; expressed in transfected cells
T3 sequence (P32301 22-463): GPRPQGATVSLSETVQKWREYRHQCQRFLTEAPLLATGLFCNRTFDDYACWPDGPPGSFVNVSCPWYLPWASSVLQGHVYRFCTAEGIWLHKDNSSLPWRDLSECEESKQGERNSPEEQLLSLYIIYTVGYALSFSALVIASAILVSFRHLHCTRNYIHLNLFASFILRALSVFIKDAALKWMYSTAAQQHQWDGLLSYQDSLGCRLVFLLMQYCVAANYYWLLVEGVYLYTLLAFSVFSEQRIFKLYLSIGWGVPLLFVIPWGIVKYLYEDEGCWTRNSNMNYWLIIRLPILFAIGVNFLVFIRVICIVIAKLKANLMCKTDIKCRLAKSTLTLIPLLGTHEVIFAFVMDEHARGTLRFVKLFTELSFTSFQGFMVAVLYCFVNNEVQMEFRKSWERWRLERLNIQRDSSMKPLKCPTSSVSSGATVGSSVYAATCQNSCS
Nature of the experiment: Receptor binding, SPA competitive binding assay. To be noted: SPA competitive binding on BHK cell membranes, [125I]-GLP-1(7–36)-NH2 tracer, 1% species specific plasma, 2 h 30°C; value (95% CI). The method, then:
as §1, §3

The target of a further experiment is T4, Human GCGR (Homo sapiens, UniProt P47871).
T4 construct: a plasmid encoding either the glucagon receptor or the GLP-1 receptor from the relevant species; expressed in transfected cells
The experiment in a line: Receptor binding, SPA competitive binding assay. To be noted: SPA competitive binding on BHK cell membranes, [125I]-glucagon tracer, 1% species specific plasma, 2 h 30°C; value (95% CI). The procedure:
as §1, §3

Experiment [2] deals with T2, Mouse GLP-1R. Nature of the experiment: Receptor binding, SPA competitive binding assay. To be noted: SPA competitive binding on BHK cell membranes, [125I]-GLP-1(7–36)-NH2 tracer, 1% species specific plasma, 2 h 30°C; value (95% CI). The method, then: as §1, §3
The target of a further experiment is Human GLP-1R (Homo sapiens, UniProt P43220). The experiment in a line: Receptor binding, SPA competitive binding assay. The conditions noted are these: for IC50: SPA competitive binding on BHK cell membranes, [125I]-GLP-1(7–36)-NH2 tracer, 1% species specific plasma, 2 h 30°C, value (95% CI). The procedure: as §1, §3
A further experiment concerns the target T5, Rat GCGR (Rattus norvegicus, UniProt P30082).
T5 construct: a plasmid encoding either the glucagon receptor or the GLP-1 receptor from the relevant species; expressed in transfected cells
Nature of the experiment: Receptor binding, SPA competitive binding assay. The conditions noted are these: SPA competitive binding on BHK cell membranes, [125I]-glucagon tracer, 1% species specific plasma, 2 h 30°C; value (95% CI). The method, then:
as §1, §3

In another experiment the test system is DIO mice. The experiment in a line: Subchronic effect on glucose tolerance in DIO mice (IPGTT at steady state). It is filed as in vivo, mouse. The conditions noted are these: after 3 weeks daily s.c. dosing, Cmax (5 h post dosing), p<0.001.
[3] abbreviates: GCGR EC50, pM (95% CI) 0% plasma, 0% plasma.
Setting [4] is: GCGR EC50, pM (95% CI) 100% plasma, 100% species-specific plasma.

Human GLP-1R, sequence (P43220 24-463): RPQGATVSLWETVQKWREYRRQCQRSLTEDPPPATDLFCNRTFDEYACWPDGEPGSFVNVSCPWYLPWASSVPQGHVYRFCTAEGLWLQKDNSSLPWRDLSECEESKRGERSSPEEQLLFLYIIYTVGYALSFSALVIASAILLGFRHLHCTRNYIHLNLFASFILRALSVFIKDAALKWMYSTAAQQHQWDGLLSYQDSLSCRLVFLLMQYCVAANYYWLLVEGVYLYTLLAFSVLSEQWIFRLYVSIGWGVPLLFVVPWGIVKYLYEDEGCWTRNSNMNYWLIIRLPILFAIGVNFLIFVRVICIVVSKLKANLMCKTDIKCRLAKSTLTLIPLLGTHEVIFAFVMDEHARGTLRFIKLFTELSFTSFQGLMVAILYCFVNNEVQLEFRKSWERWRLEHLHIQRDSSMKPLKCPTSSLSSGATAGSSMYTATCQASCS
T1 sequence (Q61606 27-485): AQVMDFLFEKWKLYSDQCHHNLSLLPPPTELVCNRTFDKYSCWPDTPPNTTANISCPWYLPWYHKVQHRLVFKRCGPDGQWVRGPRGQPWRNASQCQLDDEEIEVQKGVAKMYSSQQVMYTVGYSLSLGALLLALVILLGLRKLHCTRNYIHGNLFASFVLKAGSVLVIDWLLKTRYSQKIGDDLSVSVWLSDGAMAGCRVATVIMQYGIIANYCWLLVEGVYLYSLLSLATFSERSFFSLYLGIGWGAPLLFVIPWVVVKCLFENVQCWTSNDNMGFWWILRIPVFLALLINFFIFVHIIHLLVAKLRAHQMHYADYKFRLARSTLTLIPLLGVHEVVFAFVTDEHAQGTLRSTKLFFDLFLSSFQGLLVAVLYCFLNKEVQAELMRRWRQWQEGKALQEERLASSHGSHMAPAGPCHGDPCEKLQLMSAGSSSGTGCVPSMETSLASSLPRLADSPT
T5 sequence (P30082 27-485): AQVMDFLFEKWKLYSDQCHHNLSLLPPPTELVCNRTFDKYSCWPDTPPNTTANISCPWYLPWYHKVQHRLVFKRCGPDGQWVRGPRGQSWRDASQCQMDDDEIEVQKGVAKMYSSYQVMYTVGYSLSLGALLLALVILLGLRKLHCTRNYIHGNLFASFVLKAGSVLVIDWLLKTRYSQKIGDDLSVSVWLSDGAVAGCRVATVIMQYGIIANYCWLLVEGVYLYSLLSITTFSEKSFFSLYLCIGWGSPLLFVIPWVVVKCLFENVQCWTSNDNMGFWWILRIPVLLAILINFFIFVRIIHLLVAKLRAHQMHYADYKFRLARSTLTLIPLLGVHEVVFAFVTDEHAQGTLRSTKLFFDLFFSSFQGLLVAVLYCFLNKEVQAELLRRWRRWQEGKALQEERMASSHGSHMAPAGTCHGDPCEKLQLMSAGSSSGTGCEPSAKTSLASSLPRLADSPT
T4 sequence (P47871 26-477): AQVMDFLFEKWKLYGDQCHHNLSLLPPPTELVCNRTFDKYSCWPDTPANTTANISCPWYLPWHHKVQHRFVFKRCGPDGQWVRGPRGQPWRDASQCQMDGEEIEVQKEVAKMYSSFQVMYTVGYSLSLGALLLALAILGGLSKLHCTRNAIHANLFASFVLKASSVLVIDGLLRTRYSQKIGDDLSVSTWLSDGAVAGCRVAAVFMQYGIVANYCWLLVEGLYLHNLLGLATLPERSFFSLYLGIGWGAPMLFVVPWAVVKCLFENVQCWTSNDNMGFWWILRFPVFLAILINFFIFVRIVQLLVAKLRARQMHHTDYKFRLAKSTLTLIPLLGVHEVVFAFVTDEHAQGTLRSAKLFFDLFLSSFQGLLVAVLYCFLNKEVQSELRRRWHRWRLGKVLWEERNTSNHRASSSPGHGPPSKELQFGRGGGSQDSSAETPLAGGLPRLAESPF

For `CC(C)C[C@H](NC(=O)[C@H](Cc1ccc(O)cc1)NC(=O)[C@H](CCCCN)NC(=O)[C@H](CO)NC(=O)[C@H](CC(C)C)NC(=O)[C@H](CC(=O)O)NC(=O)[C@H](CO)NC(=O)[C@@H](NC(=O)[C@H](Cc1ccccc1)NC(=O)[C@@H](NC(=O)CNC(=O)[C@H](CCC(N)=O)NC(=O)C(C)(C)NC(=O)[C@@H](N)Cc1c[nH]cn1)[C@@H](C)O)[C@@H](C)O)C(=O)N[C@@H](CCC(=O)O)C(=O)N[C@@H](CO)C(=O)N[C@@H](CCCCN)C(=O)N[C@@H](CCCNC(=N)N)C(=O)N[C@@H](C)C(=O)N[C@@H](CCCNC(=N)N)C(=O)N[C@@H](CCC(=O)O)C(=O)N[C@@H](Cc1ccccc1)C(=O)N[C@H](C(=O)N[C@@H](CCC(N)=O)C(=O)N[C@@H](Cc1c[nH]c2ccccc12)C(=O)N[C@@H](CC(C)C)C(=O)N[C@@H](CC(C)C)C(=O)N[C@@H](CCCCNC(=O)CC[C@H](NC(=O)CC[C@H](NC(=O)[C@H](CO)NC(=O)[C@H](CCC(=O)O)NC(=O)[C@H](CO)NC(=O)CC[C@H](NC(=O)CC[C@H](NC(=O)CCCCCCCCCCCCCCCCC(=O)O)C(=O)O)C(=O)O)C(=O)O)C(=O)O)C(=O)N[C@H](C(N)=O)[C@@H](C)O)C(C)C` [NN1177] (H-H[Aib]QGTFTSDLSKYLESKRAREFVQWLLK([γGlu-γGlu-Ser-Glu-Ser-γGlu-γGlu-C18 diacid])T-NH2), the EC50 on Mouse GCGR (setting [3]) was 1.96 pM; at Mouse GCGR (setting [4]), 103 pM; at Mouse GLP-1R [1], 12.6 pM. The IC50 at Rat GLP-1R came to 170 pM; at Human GCGR, 2540 pM; at Mouse GLP-1R [2], 110 pM; on Human GLP-1R, 640 pM; at Rat GCGR, 300 pM. For the same compound, on Human GLP-1R (across human, mouse and rat receptor binding assays, 1% plasma), the “Binding affinity to GLP-1 receptors relative to glucagon receptors” value is recorded as “two-to four-fold”.
As to `CC[C@H](C)[C@H](NC(=O)[C@H](Cc1ccccc1)NC(=O)[C@H](CCC(=O)O)NC(=O)[C@H](CCCNC(=N)N)NC(=O)[C@H](C)NC(=O)[C@H](C)NC(=O)[C@H](CCC(N)=O)NC(=O)[C@H](CCC(=O)O)NC(=O)[C@H](CCC(=O)O)NC(=O)[C@H](CC(C)C)NC(=O)[C@H](Cc1ccc(O)cc1)NC(=O)[C@H](CCCCN)NC(=O)[C@H](CO)NC(=O)[C@@H](NC(=O)[C@H](CC(=O)O)NC(=O)[C@H](CO)NC(=O)[C@@H](NC(=O)[C@H](Cc1ccccc1)NC(=O)[C@@H](NC(=O)CNC(=O)[C@H](Cc1c[nH]cn1)NC(=O)C(C)(C)NC(=O)CCc1c[nH]cn1)[C@@H](C)O)[C@@H](C)O)C(C)C)C(=O)N[C@@H](C)C(=O)N[C@@H](Cc1c[nH]c2ccccc12)C(=O)N[C@@H](CC(C)C)C(=O)N[C@@H](CC(C)C)C(=O)N[C@@H](CCCCNC(=O)COCCOCCNC(=O)COCCOCCNC(=O)CC[C@H](NC(=O)CC[C@H](NC(=O)CCCCCCCCCCCCCCCCC(=O)O)C(=O)O)C(=O)O)C(=O)N[C@H](C(N)=O)[C@@H](C)O` [NN1359] (Desaminohistidyl-[Aib]HGTFTSDVSKYLEEQAAREFIAWLLK([AEEA-AEEA-γGlu-γGlu-C18 diacid])T-NH2), the EC50 on Mouse GCGR (setting [3]) stood at 29.7 pM; on Mouse GCGR (setting [4]), 2540 pM; on Mouse GLP-1R [1], 95.3 pM. For the same compound, the “Basal blood glucose vs vehicle” value in the experiment on DIO mice was “significantly improved”. The IC50 came out at 2060 pM on Rat GLP-1R; 7540 pM at Human GCGR; 370 pM on Mouse GLP-1R [2]; 840 pM at Human GLP-1R; 6290 pM at Rat GCGR.
Take `CC(C)C[C@H](NC(=O)[C@H](CC(C)C)NC(=O)[C@H](Cc1c[nH]c2ccccc12)NC(=O)[C@H](CCC(N)=O)NC(=O)[C@@H](NC(=O)[C@H](Cc1ccccc1)NC(=O)[C@H](CCC(=O)O)NC(=O)[C@H](CCCNC(=N)N)NC(=O)[C@H](C)NC(=O)[C@H](C)NC(=O)[C@H](CCCNC(=N)N)NC(=O)[C@H](CO)NC(=O)[C@H](CC(=O)O)NC(=O)[C@H](CC(C)C)NC(=O)[C@H](Cc1ccc(O)cc1)NC(=O)[C@H](CCCCN)NC(=O)[C@H](CO)NC(=O)[C@H](CC(C)C)NC(=O)[C@H](CC(=O)O)NC(=O)[C@H](CO)NC(=O)[C@@H](NC(=O)[C@H](Cc1ccccc1)NC(=O)[C@@H](NC(=O)CNC(=O)[C@H](CCC(=O)O)NC(=O)C(C)(C)NC(=O)[C@@H](N)Cc1c[nH]cn1)[C@@H](C)O)[C@@H](C)O)C(C)C)C(=O)N[C@@H](CC(N)=O)C(=O)N[C@@H](CCCCNC(=O)CC[C@H](NC(=O)CC[C@H](NC(=O)COCCOCCNC(=O)COCCOCCNC(=O)CC[C@H](NC(=O)CCCCCCCCCCCCCCCCC(=O)O)C(=O)O)C(=O)O)C(=O)O)C(N)=O` [GLP-1 reference] (H-H[Aib]EGTFTSDLSKYLDSRAAREFVQWLLNK([γGlu-γGlu-AEEA-AEEA-γGlu-C18 diacid])-NH2): the EC50 at Mouse GCGR (setting [4]) came to 442000 pM; at Mouse GLP-1R [1] it was 24.6 pM.

By EC50 is commonly meant the concentration at which the effect is half-maximal. A low value points to a more potent agent. By IC50 is commonly meant the point on the concentration scale where inhibition reaches its midpoint.
